Article PMC7944397 (ACS infectious diseases, 2021)
Like-named read-outs stand apart in the source and are kept apart here.

Columns and labels:
cathepsin L = cathepsin L (Homo sapiens, UniProt P07711); assay: FRET enzymatic assay; assay type: biochemical
MERS-CoV M^pro [1] = biological target: T1, MERS-CoV M^pro (Human betacoronavirus 2c EMC/2012, UniProt K0BWD0); assay type: biochemical; conditions: read-out: KI
MERS-CoV M^pro [2] = biological target: T1, MERS-CoV M^pro; assay: biochemical

Sequence of cathepsin L (P07711 114-288): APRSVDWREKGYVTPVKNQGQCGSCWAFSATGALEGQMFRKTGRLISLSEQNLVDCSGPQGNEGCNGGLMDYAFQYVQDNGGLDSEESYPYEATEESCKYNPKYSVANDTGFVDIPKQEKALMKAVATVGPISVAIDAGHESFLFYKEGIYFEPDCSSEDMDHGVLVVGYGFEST
Sequence of cathepsin L (P07711 292-333): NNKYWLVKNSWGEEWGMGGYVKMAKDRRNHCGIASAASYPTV
T1 sequence (K0BWD0 3248-3553 limits assumed): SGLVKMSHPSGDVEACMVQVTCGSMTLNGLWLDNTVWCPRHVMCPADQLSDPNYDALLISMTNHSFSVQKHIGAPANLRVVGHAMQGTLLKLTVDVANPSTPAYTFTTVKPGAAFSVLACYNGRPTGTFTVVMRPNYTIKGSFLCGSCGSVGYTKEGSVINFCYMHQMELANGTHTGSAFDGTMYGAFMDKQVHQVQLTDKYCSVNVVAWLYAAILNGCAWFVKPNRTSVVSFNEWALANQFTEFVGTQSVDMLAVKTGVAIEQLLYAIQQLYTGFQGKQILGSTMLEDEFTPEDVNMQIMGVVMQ

Compound	IC50 (cathepsin L) [nM]	KI (inactivation) (MERS-CoV M^pro [1]) [nM]	Ki (MERS-CoV M^pro [2]) [nM]	IC50 (cathepsin L; individual value only in figure)
CC(C)C[C@H](NC(=O)[C@@H]1O[C@H]1C(=O)O)C(=O)NCCCCN=C(N)N [E-64, reference compound]	5.45	–	–	–
CC(C)(C)NC(=O)N[C@H](C(=O)N1C[C@H]2[C@@H]([C@H]1C(=O)NC(CC1CCC1)C(=O)C(N)=O)C2(C)C)C(C)(C)C (some centres unmarked) [boceprevir]	153	1650 ± 120	–	–
CCCC(NC(=O)[C@H](CC(C)C)NC(=O)OCc1ccccc1)C(=O)C(=O)NCc1ccccn1 (some centres unmarked) [calpain inhibitor XII]	–	–	1320 ± 70	calpain inhibitors II and XII and GC-376 had potent inhibition against cathepsin L
